For the data set the following is noted: Crystal; visual observation.

± gives the expanded uncertainty stated by the source.

As for `F[P-](F)(F)(F)(F)F.F[P-](F)(F)(F)(F)F.c1cc[n+](CCC[n+]2ccccc2)cc1` [1,1'-(1,3-propanediyl)bis-pyridinium hexafluorophosphate], the Normal melting temperature is 284.6 ± 1.4 °C.
